Tested on: 5 TP53 wild type colorectal cancer cell lines
Assay: Cell proliferation over the cell line panel, Example 3
Format: cell-based
Details: Example 3, panel of 5 lines, 13 nM-10 μM
Experimental: To test the effect of the combination of COMPOUND A, COMPOUND B, and COMPOUND C on cell proliferation cells were plated in black 384-well microplates with clear bottom (Matrix/Thermo Scientific, Catalog number 4332) in 50 μL media per well at cell densities between 500 and 1250 cells/well (Table 1 above) and allowed to incubate at 37 degrees, 5% CO2 for 24 h. After 24 h one 384-well plate per cell line was prepared for cell counting by microscopy (see below) without receiving treatment (=‘baseline’). The other cell plates were treated by transferring 25 nL of the 2000× compound from drug master plates using an ATS acoustic liquid dispenser (ECD Biosystems) and resulting in a final 1× concentration. COMPOUND A was used over a final concentration range of 13 nM-10 μM, COMPOUND B was used over a final concentration range of 13 nM-10 μM, and COMPOUND C was used over a final concentration range of 13 nM-10 μM (7 1:3 dilution steps). In order to assess the effect of the triple combination all individual COMPOUNDS (A, B, C), all three pair wise combinations (A+B, A+C, B+C), and the triple combination (A+B+C) were tested in the same experiment. […] Caspase 3/7 induction was measured as a proxy for apoptosis induced by the treatments. Cells were treated for 72 h to 96 h depending on their doubling time (Table 1), and Caspase 3/7 activation was measured every 24 h by microscopy using an InCell Analyzer 2000 (GE Healthcare) equipped with a 4× objective and FITC excitation/emission filters. […] All cells per well/treatment were captured in a single image by fluorescence microscopy using an InCell Analyzer 2000 (GE Healthcare) equipped with a 4× objective and DAPI excitation/emission filters.
Images were analyzed after adapting previously described methods (Horn, Sandmann et al. 2011, Nat. Methods 8(4): 341-346) and using the Bioconductor package EBImage in R (Pau, Fuchs et al. 2010, Bioinformatics 26(7):979-981). Objects in both channels, DAPI (for Hoechst/DNA) and FITC (for Caspase 3/7), were segmented separately by adaptive thresholding and counted. […]

Row | SMILES | Single agent growth inhibition, in words
1 | Cc1nc(NC(=O)N2CCC[C@H]2C(N)=O)sc1-c1ccnc(C(C)(C)C(F)(F)F)c1 [COMPOUND A, (S)-Pyrrolidine-1,2-dicarboxylic acid 2-amide 1-({4-methyl-5-[2-(2,2,2-trifluoro-1,1-dimethyl-ethyl)-pyridin-4-yl]-thiazol-2-yl}-amide)] | inhibited the growth of 2 of the cell lines with micromolar IC50 values, and was active only at the highest dose (10 μM) in the 3 other lines
2 | COc1cc2c(cc1OC(C)C)[C@H](c1ccc(Cl)cc1)N(c1ccc(N(C)C[C@H]3CC[C@H](N4CCN(C)C(=O)C4)CC3)cc1)C(=O)C2 [COMPOUND B, (S)-1-(4-Chloro-phenyl)-7-isopropoxy-6-methoxy-2-(4-{methyl-[4-(4-methyl-3-oxo-piperazin-1-yl)-trans-cyclohexylmethyl]-amino}-phenyl)-1,4-dihydro-2H-isoquinolin-3-one] | inhibited the growth of cell lines with sub-micromolar to micromolar IC50 values

Source: US20180318275A1, “COMBINATION THERAPY USING PI3K INHIBITOR AND MDM2 INHIBITOR” (Novartis AG, priority 2015, published 2018)
